{"source": "paper PMC8373983", "about": "“Effect of salinity on the zinc(II) binding efficiency of siderophore functional groups and implications for salinity tolerance mechanisms in barley” (Scientific Reports, 2021)", "key": {"[1]": {"test": "Ligand protonation constants, potentiometric titration in NaCl", "type": "physicochemical", "conditions": "T = 298.1 K; for logβ^0, H+ + L = HL: intrinsic, modified Extended Debye–Hückel fit (direct); for C, H+ + L = HL: parameter of ionic strength dependence, NaCl", "description": "(§1) Potentiometric measurements were carried out at T = 298.1 ± 0.1 K in thermostatted cells. The setup consisted of a Metrohm model 888 Titrando apparatus controlled by Metrohm TiAMO 1.2 software equipped with a combined gel electrode (VWR model 662 1759). Estimated precision was 0.2 mV and 0.003 ml for the electromotive force and titrant volume readings, respectively. All the potentiometric titrations were carried out under magnetic stirring and bubbling purified presaturated N2 through the solution to exclude O2 and CO2.\n(§2) A 30 ml solution containing each ligand ([L] = 5 – 10 mM), NaCl and HCl was titrated with standard NaOH solutions. For the zinc(II)/ligand systems, the titrant solutions consisted of different amounts of ligand ([L] = 5 − 10 mM), zinc(II) ([Zn] = 0.5—5 mM) and a suitable amount of HCl and NaCl. All the measurements were carried out with an excess of the ligand, with respect to zinc(II) and at different zinc(II):ligand molar ratios. The selection of ratios investigated was determined by simulating titrations using Hyperquad Simulation and Speciation computer software (HySS)[41]. [Zn] and [L] were negligible compared to the background electrolyte concentrations. […] To account for the influence of zinc(II) hydrolysis in the zinc(II)/ligand systems, zinc(II) titrations were carried out separately at each ionic strength to determine the hydroxide constants so that these constants could be included in the equilibrium model used to refine the titration data. In these titrations, the zinc(II) concentration in the analyte solution was 0.7 mM.\n(§3) Before each experiment, independent titrations of strong acid solutions with standard base were carried out under the same medium and ionic strength conditions as the systems to be investigated, with the aim of determining the electrode potential (E^0’) using GLEE software. In this way, the pH scale used was the […], pH = -log [H]^+, where [H]^+ is the free proton concentration. For each titration, approximately 80 to 100 data points were collected. The equilibrium state during titrations was checked by confirming the time required to reach equilibrium.\n(§4) The software program Hyperquad was used to determine the equilibrium model and to calculate pKa and stability constants from the potentiometric data set[43]. For each set of pKa constants or zinc(II):ligand ratio studied, at least two repeat titrations were performed. The titration curves for each system were treated as a single set when refining the stability constants. This meant that the refinement procedure was run on both curves at the same time to derive a single set of constants. The error reported on the stability constants is the standard deviation given in the Hyperquad output file. Examples of Hyperquad files for the zinc(II)/PYR system are provided on the Zenodo repository (https://doi.org/10.5281/zenodo.4641710).\n(§5) The ionic strength dependence of the stability constants was studied with the modified version of the Extended Debye–Hückel equation[28]. The Monte Carlo method, as described by Hu et al.[43], was used to estimate 95% confidence intervals on the parameters of ionic strength dependence; for each species, predicted stability constants were resampled using an inverse of the cumulative normal distribution function to give sets of simulated data from which the unknown parameters were optimized. An example Excel calculation file for the application of the modified version of the Extended Debye–Hückel equation to the zinc(II)/PYR system (including the calculation of error on parameters of ionic strength dependence) has been uploaded to the Zenodo repository (https://doi.org/10.5281/zenodo.4641710).\n(§6) To quantify the improvement of using a direct vs. indirect method for studying ionic strength dependence, the Davies equation (Eq. 3) was applied to the zinc(II)/PYR data. Speciation calculations for a [Zn] = 10^–6 M and [L] = 10^–5 M system at infinite dilution were conducted with the aid of HySS. […]"}, "[2]": {"test": "Zinc(II)-ligand stability constants, potentiometric titration in NaCl", "type": "binding", "description": "as §1, §2, §3, §4, §5, §6"}, "[3]": {"conditions": "intrinsic, modified Extended Debye–Hückel fit (direct), T = 298.1 K"}, "[4]": {"conditions": "parameter of ionic strength dependence, NaCl"}}, "note": "Marks after values point to notes of the source that are not given here."}
{"smiles": "CC(=O)NO", "note": "[AHA, acetohydroxamic acid]", "values": [{"measurement": "log β, H+ + L = HL", "setting": "[1]; 0.05 M NaCl", "result": "9.28 ± 0.01"}, {"measurement": "log β, H+ + L = HL", "setting": "[1]; 0.15 M NaCl", "result": "9.06 ± 0.01"}, {"measurement": "log β, H+ + L = HL", "setting": "[1]; 0.30 M NaCl", "result": "9.10 ± 0.01"}, {"measurement": "log β, H+ + L = HL", "setting": "[1]; 0.70 M NaCl", "result": "9.04 ± 0.01"}, {"measurement": "log β, H+ + L = HL", "setting": "[1]; 1.00 M NaCl", "result": "9.07 ± 0.01"}, {"measurement": "logβ^0, H+ + L = HL", "setting": "[1]", "result": "9.376 ± 0.001"}, {"measurement": "C, H+ + L = HL", "setting": "[1]", "result": "0.085 ± 0.001"}, {"measurement": "log β, Zn2+ + 2L = ZnL2", "setting": "[2]; 0.05 M NaCl, T = 298.1 K", "result": "9.60±0.01"}, {"measurement": "log β, Zn2+ + 2OH- + L- = ZnOH2L-", "setting": "[2]; 0.05 M NaCl, T = 298.1 K", "result": "-13.60±0.04"}, {"measurement": "log β, Zn2+ + L = ZnL (1:1)", "setting": "[2]; 0.05 M NaCl, T = 298.1 K", "result": "5.32±0.01"}, {"measurement": "log β, Zn2+ + OH- + L- = ZnOHL", "setting": "[2]; 0.05 M NaCl, T = 298.1 K", "result": "-3.22±0.04"}, {"measurement": "log β, Zn2+ + 2L = ZnL2", "setting": "[2]; 0.15 M NaCl, T = 298.1 K", "result": "9.16±0.01"}, {"measurement": "log β, Zn2+ + 2OH- + L- = ZnOH2L-", "setting": "[2]; 0.15 M NaCl, T = 298.1 K", "result": "-13.65±0.01"}, {"measurement": "log β, Zn2+ + L = ZnL (1:1)", "setting": "[2]; 0.15 M NaCl, T = 298.1 K", "result": "5.10±0.01"}, {"measurement": "log β, Zn2+ + OH- + L- = ZnOHL", "setting": "[2]; 0.15 M NaCl, T = 298.1 K", "result": "-3.64±0.02"}, {"measurement": "log β, Zn2+ + 2L = ZnL2", "setting": "[2]; 0.30 M NaCl, T = 298.1 K", "result": "9.11±0.01"}, {"measurement": "log β, Zn2+ + 2OH- + L- = ZnOH2L-", "setting": "[2]; 0.30 M NaCl, T = 298.1 K", "result": "-13.21±0.07"}, {"measurement": "log β, Zn2+ + L = ZnL (1:1)", "setting": "[2]; 0.30 M NaCl, T = 298.1 K", "result": "5.01±0.03"}, {"measurement": "log β, Zn2+ + OH- + L- = ZnOHL", "setting": "[2]; 0.30 M NaCl, T = 298.1 K", "result": "-4.22±0.08"}, {"measurement": "log β, Zn2+ + 2L = ZnL2", "setting": "[2]; 0.70 M NaCl, T = 298.1 K", "result": "8.79±0.01"}, {"measurement": "log β, Zn2+ + 2OH- + L- = ZnOH2L-", "setting": "[2]; 0.70 M NaCl, T = 298.1 K", "result": "-14.07±0.02"}, {"measurement": "log β, Zn2+ + L = ZnL (1:1)", "setting": "[2]; 0.70 M NaCl, T = 298.1 K", "result": "4.87±0.01"}, {"measurement": "log β, Zn2+ + OH- + L- = ZnOHL", "setting": "[2]; 0.70 M NaCl, T = 298.1 K", "result": "-4.07±0.02"}, {"measurement": "stability of the 1:1 zinc(II) species below/above the equivalent PYR and GLY complexes", "setting": "[2]; 1:1 zinc(II) complex", "result": "3.5–4 logβ units"}, {"measurement": "log β, Zn2+ + 2L = ZnL2", "setting": "[2]; 1.00 M NaCl, T = 298.1 K", "result": "8.79±0.01"}, {"measurement": "log β, Zn2+ + 2OH- + L- = ZnOH2L-", "setting": "[2]; 1.00 M NaCl, T = 298.1 K", "result": "-13.96±0.01"}, {"measurement": "log β, Zn2+ + L = ZnL (1:1)", "setting": "[2]; 1.00 M NaCl, T = 298.1 K", "result": "4.82±0.01"}, {"measurement": "log β, Zn2+ + OH- + L- = ZnOHL", "setting": "[2]; 1.00 M NaCl, T = 298.1 K", "result": "-4.41±0.04"}, {"measurement": "decrease of the 1:1 zinc(II) stability constant", "setting": "[2]; between 0.00 and 1.00 M NaCl", "result": 0.79, "unit": "logβ units"}, {"measurement": "decrease of the 1:1 zinc(II) stability constant", "setting": "[2]; between 0.05 and 1.00 M NaCl", "result": 14, "unit": "%"}, {"measurement": "logβ0, Zn2+ + 2L = ZnL2", "setting": "[2]; [3]", "result": "10.021±0.001"}, {"measurement": "C, Zn2+ + 2L = ZnL2", "setting": "[2]; [4]", "result": "-0.052±0.002"}, {"measurement": "C, Zn2+ + 2OH- + L- = ZnOH2L-", "setting": "[2]; [4]", "result": "0.571±0.017"}, {"measurement": "C, Zn2+ + OH- + L- = ZnOHL", "setting": "[2]; [4]", "result": "1.2095±0.027"}]}
{"smiles": "O=C(O)CO", "note": "[GLY, glycolic acid]", "values": [{"measurement": "log β, H+ + L = HL", "setting": "[1]; 0.05 M NaCl", "result": "3.55 ± 0.01"}, {"measurement": "log β, H+ + L = HL", "setting": "[1]; 0.15 M NaCl", "result": "3.49 ± 0.01"}, {"measurement": "log β, H+ + L = HL", "setting": "[1]; 0.30 M NaCl", "result": "3.54 ± 0.01"}, {"measurement": "log β, H+ + L = HL", "setting": "[1]; 0.70 M NaCl", "result": "3.44 ± 0.01"}, {"measurement": "log β, H+ + L = HL", "setting": "[1]; 1.00 M NaCl", "result": "3.39 ± 0.01"}, {"measurement": "logβ^0, H+ + L = HL", "setting": "[1]", "result": "3.750^b"}, {"measurement": "C, H+ + L = HL", "setting": "[1]", "result": "0.070^b"}, {"measurement": "log β, Zn2+ + L = ZnL (1:1)", "setting": "[2]; 0.05 M NaCl, T = 298.1 K", "result": "2.83±0.02"}, {"measurement": "log β, Zn2+ + L = ZnL (1:1)", "setting": "[2]; 0.15 M NaCl, T = 298.1 K", "result": "2.10±0.01"}, {"measurement": "log β, Zn2+ + L = ZnL (1:1)", "setting": "[2]; 0.30 M NaCl, T = 298.1 K", "result": "1.93±0.01"}, {"measurement": "log β, Zn2+ + L = ZnL (1:1)", "setting": "[2]; 0.70 M NaCl, T = 298.1 K", "result": "1.25±0.03"}, {"measurement": "stability lower than the equivalent 1:1 zinc(II)-PYR structure", "setting": "[2]; 1:1 zinc(II) complex", "result": "approximately 7 logβ units"}, {"measurement": "log β, Zn2+ + L = ZnL (1:1)", "setting": "[2]; 1.00 M NaCl, T = 298.1 K", "result": "0.83±0.04"}, {"measurement": "decrease in the 1:1 zinc(II) stability constant", "setting": "[2]; between 0.00 and 1.00 M NaCl", "result": "~80", "unit": "%"}, {"measurement": "decrease of the 1:1 zinc(II) stability constant", "setting": "[2]; between 0.00 and 1.00 M NaCl", "result": 2.19, "unit": "logβ units"}, {"measurement": "logβ0, Zn2+ + L = ZnL (1:1)", "setting": "[2]; [3]", "result": "3.018±0.003"}, {"measurement": "C, Zn2+ + L = ZnL (1:1)", "setting": "[2]; [4]", "result": "-1.418±0.006"}]}
